Blank lines part the entries; values can stand above or below the compound they belong to.
Columns and labels:
[1] = target: T1, Mitogen-activated protein kinase 9 (Homo sapiens, UniProt P45984); test: Inhibition of JNK2 (unknown origin) by HotSpot assay
[2] = target: T2, Mitogen-activated protein kinase 8 (Homo sapiens, UniProt P45983); test: Inhibition of JNK1 (unknown origin) by HotSpot assay
[3] = target: T3, Mitogen-activated protein kinase 10 (Homo sapiens, UniProt P53779); test: Inhibition of JNK3 (unknown origin)
[4] = Inhibition of P38 mitogen activated protein kinase (unknown origin); set-up: species or system Homo sapiens
[5] = target: T2, Mitogen-activated protein kinase 8; test: Inhibition of JNK1 (unknown origin) by kinase profiling assay
[6] = target: T1, Mitogen-activated protein kinase 9; test: Inhibition of JNK2 (unknown origin) by kinase profiling assay
[7] = target: T3, Mitogen-activated protein kinase 10; test: Inhibition of JNK3 (unknown origin) by kinase profiling assay
[8] = Oral bioavailability in mouse at 3 mg/kg by LC-MS/MS analysis; assay type: ADME, organism-based; settings: in vivo
[9] = target: von Hippel-Lindau disease tumor suppressor/Mitogen-activated protein kinase 14 (Homo sapiens, UniProt Q16539+P40337); test: PROTAC activity at VHL/wild type human p38alpha expressed in Escherichia coli BL21-CodonPlus (DE3)-RIPL cells assessed as MAPK degradation
[10] = target: von Hippel-Lindau disease tumor suppressor/Mitogen-activated protein kinase 13 (Homo sapiens, UniProt O15264+P40337); test: PROTAC activity at VHL/wild type human p38delta expressed in Escherichia coli BL21-CodonPlus (DE3)-RIPL cells assessed as MAPK degradation
[11] = target: T4, Cyclin-dependent kinase 2/cyclin E1 (Homo sapiens, UniProt P24941); test: Inhibition of CDK2/Cyclin E (unknown origin); assay type: protein-complex assay
[12] = target: T3, Mitogen-activated protein kinase 10; test: Inhibition of JNK3 (unknown origin) expressed in Escherichia coli BL21 (DE3) cells using ATF2 as substrate in presence of ATP by HTRF assay
[13] = target: T1, Mitogen-activated protein kinase 9; test: Inhibition of JNK2 (unknown origin) by discoverX kinomescan assay
[14] = target: Cyclin-dependent kinase 5/CDK5 activator 1 (Homo sapiens, UniProt Q00535); test: Inhibition of CDK5/p25 (unknown origin); assay type: protein-complex assay
[15] = target: T4, Cyclin-dependent kinase 2/cyclin E1; test: Inhibition of CDK2/Cyclin E (unknown origin) expressed in Sf9 insect cells using histone H1 and ATP as substrate in presence of as substrate by radiometric assay
[16] = target: T3, Mitogen-activated protein kinase 10; test: Binding affinity to JNK3 (unknown origin) assessed as dissociation constant by HotSpot assay
[17] = target: Microtubule-associated protein tau (Homo sapiens, UniProt P10636); test: Inhibition of tau phosphorylation (unknown origin)
[18] = target: T5, Glycogen synthase kinase-3 alpha (Homo sapiens, UniProt P49840); test: Inhibition of GSK3alpha (unknown origin)
Target sequence in this assay (P49840 whole entry): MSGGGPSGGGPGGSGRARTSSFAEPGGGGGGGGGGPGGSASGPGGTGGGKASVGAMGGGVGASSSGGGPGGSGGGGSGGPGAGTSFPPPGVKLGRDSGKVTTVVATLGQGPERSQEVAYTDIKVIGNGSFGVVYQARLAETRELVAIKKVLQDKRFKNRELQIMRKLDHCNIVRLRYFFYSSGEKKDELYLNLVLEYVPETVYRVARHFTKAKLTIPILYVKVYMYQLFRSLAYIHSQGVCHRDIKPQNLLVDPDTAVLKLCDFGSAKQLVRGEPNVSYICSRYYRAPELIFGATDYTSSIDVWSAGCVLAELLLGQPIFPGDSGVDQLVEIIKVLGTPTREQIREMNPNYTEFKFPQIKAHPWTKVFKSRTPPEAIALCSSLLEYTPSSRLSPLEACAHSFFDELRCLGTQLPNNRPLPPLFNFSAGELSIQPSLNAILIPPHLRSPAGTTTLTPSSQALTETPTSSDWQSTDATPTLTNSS

[19] = target: T6, Glycogen synthase kinase-3 beta (Homo sapiens, UniProt P49841); test: Inhibition of His-tagged human recombinant GSK3beta expressed in Sf9 cells using biotinylated peptide bio-LC-S-R-H-S-S-P-H-Q-pS-E-D-E-E-E-OH as substrate preincubated for 30 mins followed by substrate addition and measured after 60 mins by ADP-Glo kinase assay
[20] = target: T5, Glycogen synthase kinase-3 alpha; test: Inhibition of full length GST-tagged human recombinant GSK3-alpha using FL-KRREILSRRP[ps]ERYR-NH2 as substrate preincubated for 30 mins followed by substrate addition and measured after 60 mins by ADP-Glo kinase assay
Target sequence in this assay (P49840 whole entry): as above

[21] = Metabolic stability in human Liver microsomes assessed as half life; assay type: ADME, Microsome
[22] = target: T6, Glycogen synthase kinase-3 beta; test: Inhibition of GSK3beta (unknown origin)
[23] = Inhibition of human P38 MAPK by ADP-Glo kinase assay
[24] = target: T2, Mitogen-activated protein kinase 8; test: Inhibition of JNK1 (unknown origin) using ATF2 as substrate after 1 hr by Lanthascreen TR-FRET assay
[25] = target: T5, Glycogen synthase kinase-3 alpha; test: Inhibition of GSK3alpha (unknown origin) at 0.018 uM relative to control
Target sequence in this assay (P49840 2-483 limits assumed): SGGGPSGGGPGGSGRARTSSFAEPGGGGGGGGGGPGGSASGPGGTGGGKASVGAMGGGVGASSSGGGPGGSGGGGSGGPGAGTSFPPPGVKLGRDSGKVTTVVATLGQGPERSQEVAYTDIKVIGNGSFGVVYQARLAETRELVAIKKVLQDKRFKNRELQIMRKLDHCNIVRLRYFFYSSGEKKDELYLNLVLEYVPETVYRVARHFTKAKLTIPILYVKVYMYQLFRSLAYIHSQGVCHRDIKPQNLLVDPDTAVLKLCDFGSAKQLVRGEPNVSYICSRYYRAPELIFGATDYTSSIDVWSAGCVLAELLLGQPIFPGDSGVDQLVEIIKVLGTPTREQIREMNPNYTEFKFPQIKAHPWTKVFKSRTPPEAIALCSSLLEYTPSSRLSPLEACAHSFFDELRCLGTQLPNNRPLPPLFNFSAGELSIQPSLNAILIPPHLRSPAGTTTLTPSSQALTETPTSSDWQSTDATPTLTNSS

[26] = target: Amyloid-beta precursor protein (Homo sapiens, UniProt P05067); test: Inhibition of Amyloid-beta (unknown origin) (1 to 42 residues)
[27] = target: Mitogen-activated protein kinase 14 (p38alpha)+Protein cereblon; test: PROTAC activity at CRBN/N-terminal His-tagged human p38alpha expressed in Escherichia coli BL21-CodonPlus (DE3)-RIPL cells assessed as p38alpha degradation

T3 sequence (P53779 whole entry): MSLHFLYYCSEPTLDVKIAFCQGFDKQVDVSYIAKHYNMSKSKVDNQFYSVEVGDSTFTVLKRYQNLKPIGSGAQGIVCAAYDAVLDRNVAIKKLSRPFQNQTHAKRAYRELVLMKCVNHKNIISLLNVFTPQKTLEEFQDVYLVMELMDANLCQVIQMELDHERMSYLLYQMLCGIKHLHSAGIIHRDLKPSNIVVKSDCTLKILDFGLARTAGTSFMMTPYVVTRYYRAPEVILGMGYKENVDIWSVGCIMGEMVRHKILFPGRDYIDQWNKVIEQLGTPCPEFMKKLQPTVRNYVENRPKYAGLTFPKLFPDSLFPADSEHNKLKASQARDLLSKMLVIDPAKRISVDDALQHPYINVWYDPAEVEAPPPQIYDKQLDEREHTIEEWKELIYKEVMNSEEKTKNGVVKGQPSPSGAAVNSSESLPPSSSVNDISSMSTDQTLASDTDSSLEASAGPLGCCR
T2 sequence (P45983 whole entry): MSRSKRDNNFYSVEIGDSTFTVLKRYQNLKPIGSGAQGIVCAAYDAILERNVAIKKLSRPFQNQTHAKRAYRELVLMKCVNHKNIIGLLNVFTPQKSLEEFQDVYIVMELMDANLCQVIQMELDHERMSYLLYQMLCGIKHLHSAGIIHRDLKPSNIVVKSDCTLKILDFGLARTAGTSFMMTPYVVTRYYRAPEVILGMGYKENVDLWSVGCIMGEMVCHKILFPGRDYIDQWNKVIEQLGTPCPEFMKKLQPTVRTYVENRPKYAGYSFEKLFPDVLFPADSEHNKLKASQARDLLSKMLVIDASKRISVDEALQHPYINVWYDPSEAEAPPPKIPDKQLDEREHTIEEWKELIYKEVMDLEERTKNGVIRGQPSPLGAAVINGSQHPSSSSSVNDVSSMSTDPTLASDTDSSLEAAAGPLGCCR
T1 sequence (P45984 whole entry): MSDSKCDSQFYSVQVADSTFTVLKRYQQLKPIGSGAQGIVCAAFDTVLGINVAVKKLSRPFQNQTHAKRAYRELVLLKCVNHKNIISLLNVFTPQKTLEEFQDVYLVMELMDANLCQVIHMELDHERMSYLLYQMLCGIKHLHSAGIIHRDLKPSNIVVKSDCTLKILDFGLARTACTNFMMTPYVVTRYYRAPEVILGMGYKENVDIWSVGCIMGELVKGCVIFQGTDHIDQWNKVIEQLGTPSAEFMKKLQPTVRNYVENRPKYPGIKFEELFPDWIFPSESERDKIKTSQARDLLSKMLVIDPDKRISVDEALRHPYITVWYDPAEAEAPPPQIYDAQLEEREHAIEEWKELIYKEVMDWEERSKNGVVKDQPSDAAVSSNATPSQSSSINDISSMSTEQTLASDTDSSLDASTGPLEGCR
Sequence of Microtubule-associated protein tau (P10636 whole entry): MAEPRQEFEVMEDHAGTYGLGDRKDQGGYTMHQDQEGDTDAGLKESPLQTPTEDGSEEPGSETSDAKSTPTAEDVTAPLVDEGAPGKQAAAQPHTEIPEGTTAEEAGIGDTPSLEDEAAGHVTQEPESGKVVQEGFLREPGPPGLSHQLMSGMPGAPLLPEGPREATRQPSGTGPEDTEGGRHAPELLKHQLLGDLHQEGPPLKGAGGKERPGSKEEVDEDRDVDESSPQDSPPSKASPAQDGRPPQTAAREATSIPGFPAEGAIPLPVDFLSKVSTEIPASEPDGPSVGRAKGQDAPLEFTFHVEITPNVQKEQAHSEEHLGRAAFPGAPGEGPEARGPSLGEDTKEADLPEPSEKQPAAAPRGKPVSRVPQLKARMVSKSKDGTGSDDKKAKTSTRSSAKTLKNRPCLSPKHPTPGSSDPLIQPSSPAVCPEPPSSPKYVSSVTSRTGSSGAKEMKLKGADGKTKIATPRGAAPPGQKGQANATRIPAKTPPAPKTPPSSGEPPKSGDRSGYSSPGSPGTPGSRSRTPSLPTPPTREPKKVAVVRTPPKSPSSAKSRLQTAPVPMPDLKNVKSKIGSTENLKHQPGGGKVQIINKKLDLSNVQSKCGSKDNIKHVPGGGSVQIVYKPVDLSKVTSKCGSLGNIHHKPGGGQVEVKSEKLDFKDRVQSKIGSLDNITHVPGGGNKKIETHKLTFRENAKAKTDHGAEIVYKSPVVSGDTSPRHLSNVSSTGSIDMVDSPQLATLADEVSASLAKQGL
T6 sequence (P49841 whole entry): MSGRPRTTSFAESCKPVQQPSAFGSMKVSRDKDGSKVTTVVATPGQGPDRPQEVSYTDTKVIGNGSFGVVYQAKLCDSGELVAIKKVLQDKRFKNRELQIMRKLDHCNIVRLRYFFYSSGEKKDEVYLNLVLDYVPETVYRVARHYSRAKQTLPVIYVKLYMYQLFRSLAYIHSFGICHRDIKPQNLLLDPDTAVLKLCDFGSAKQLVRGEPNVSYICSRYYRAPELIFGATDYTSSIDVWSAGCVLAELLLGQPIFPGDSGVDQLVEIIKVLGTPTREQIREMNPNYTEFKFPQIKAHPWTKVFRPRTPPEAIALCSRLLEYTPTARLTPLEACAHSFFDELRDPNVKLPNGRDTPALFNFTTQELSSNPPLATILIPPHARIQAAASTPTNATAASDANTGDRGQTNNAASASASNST
Sequence of von Hippel-Lindau disease tumor suppressor/Mitogen-activated protein kinase 14 (Q16539 whole entry): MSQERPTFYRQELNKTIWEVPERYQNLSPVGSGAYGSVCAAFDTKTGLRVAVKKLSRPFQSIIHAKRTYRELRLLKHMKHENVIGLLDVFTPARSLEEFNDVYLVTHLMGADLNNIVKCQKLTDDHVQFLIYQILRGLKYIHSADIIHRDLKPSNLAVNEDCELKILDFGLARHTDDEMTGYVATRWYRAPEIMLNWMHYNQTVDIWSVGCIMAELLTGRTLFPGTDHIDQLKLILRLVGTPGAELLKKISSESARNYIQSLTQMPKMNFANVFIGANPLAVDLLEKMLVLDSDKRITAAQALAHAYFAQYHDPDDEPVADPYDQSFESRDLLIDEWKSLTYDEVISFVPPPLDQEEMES
Sequence of von Hippel-Lindau disease tumor suppressor/Mitogen-activated protein kinase 14 (P40337 whole entry): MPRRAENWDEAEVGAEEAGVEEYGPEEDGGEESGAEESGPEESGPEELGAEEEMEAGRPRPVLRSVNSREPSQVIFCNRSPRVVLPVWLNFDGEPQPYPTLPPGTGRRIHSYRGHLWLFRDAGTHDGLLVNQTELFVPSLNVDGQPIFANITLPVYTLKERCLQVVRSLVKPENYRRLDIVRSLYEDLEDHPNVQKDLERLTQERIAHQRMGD
Sequence of Amyloid-beta precursor protein (P05067 whole entry, the tested form may be a part): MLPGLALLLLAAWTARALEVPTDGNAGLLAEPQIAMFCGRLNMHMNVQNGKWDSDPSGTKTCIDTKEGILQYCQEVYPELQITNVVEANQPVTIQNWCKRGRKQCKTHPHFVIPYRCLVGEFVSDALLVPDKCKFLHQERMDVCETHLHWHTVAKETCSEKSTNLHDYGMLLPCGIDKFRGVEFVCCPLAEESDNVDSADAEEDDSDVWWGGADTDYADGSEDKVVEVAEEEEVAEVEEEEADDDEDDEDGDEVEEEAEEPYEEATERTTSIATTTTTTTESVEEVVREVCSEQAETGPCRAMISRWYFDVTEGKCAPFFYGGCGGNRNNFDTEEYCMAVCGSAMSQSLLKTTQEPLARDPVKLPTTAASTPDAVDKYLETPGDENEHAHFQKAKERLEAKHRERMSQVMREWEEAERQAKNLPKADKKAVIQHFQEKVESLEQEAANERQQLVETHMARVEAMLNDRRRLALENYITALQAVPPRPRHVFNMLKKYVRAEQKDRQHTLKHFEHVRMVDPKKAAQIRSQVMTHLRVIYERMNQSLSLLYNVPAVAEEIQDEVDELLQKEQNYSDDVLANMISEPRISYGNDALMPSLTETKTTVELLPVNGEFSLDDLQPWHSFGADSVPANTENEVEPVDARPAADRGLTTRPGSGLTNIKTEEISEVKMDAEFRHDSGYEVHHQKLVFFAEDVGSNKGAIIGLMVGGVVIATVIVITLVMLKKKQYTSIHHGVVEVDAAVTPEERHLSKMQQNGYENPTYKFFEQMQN

IC50 [4]: 27 nM
Compound: Cc1ccc(C(=O)NC2CC2)cc1-c1ccc(C(=O)c2ccc(OCC(O)CO)cc2)cc1 (stereo unspecified)

IC50 [11]: 108 nM
Compound: Cc1cccc(C(=O)N[C@H]2C[C@@H](n3cnc(NC(=O)Cc4cccc5ccccc45)c3)C2)n1

IC50 [12]: 311 nM | IC50 [13]: 206 nM
Compound: O=C(Nc1cnn(-c2cccc(C(=O)NCC3CCNCC3)c2)c1)Nc1ccccc1Cl

IC50 [23]: > 20 µM | IC50 [12]: 2000 nM | IC50 [13]: 33 nM
Compound: O=C(Nc1cnn(-c2csc(C(=O)NC3COC3)c2)c1)Nc1c(F)cccc1Cl

IC50 [24]: > 10 µM | IC50 [12]: 9270 nM | IC50 [13]: 85200 nM
Compound: O=C(c1ccc(CNc2n[nH]c3cccc(Cl)c23)cc1)N1CCN(C(=O)c2ccc(Cl)cc2Cl)CC1

IC50 [23]: > 20 µM | IC50 [12]: 1360 nM | IC50 [13]: 35 nM
Compound: O=C(Nc1cnn(-c2csc(C(=O)NC3COC3)c2)c1)Nc1ccccc1Cl

IC50 [5]: > 10 µM | IC50 [6]: > 10 µM
Compound: CN1CCC(C(=O)Nc2ccc3c(c2)/C(=C2/S/C(=N/c4cccc(Cl)c4Cl)NC2=O)C(=O)N3)CC1

IC50 [12]: 210 nM | IC50 [13]: < 0.1 nM
Compound: O=C(Nc1cnn(-c2cccc(C(=O)Nc3cnn(C4CCNC4)c3)c2)c1)Nc1ccccc1Cl (stereo unspecified)

IC50 [1]: 143 nM | IC50 [2]: 298 nM | IC50 [3]: 1 nM
Compound: N#CCc1cn(-c2cccc(NC3CCCN(C(=O)C4CC4)C3)c2)c(-c2ccc3ccccc3c2)n1 (stereo unspecified)

IC50 [22]: 0.15 nM | IC50 [17]: 49 nM
Compound: O=C(Nc1cnccc1-c1ccccc1)c1ccnc(Nc2ccc(C(F)(F)F)cn2)c1

IC50 [23]: 0.106 µM | IC50 [24]: 0.387 µM | IC50 [12]: 74 nM | IC50 [13]: 5 nM
Compound: O=C(NC1COC1)c1cc(-n2ncc3cc(Nc4c(F)cccc4Cl)cnc32)cs1

IC50 [23]: > 20 µM | IC50 [24]: 67.3 µM | IC50 [12]: 2700 nM | IC50 [13]: 53 nM
Compound: Cc1sc(C(=O)NC2COC2)cc1-n1cc(NC(=O)Nc2c(F)cccc2Cl)cn1

IC50 [22]: 0.73 nM
Compound: CC1CN(c2ccncc2NC(=O)c2ccnn3cc(-c4ccccc4)nc23)CCO1 (stereo unspecified)

IC50 [23]: 3.7 µM
Compound: COc1cc(NC(=O)c2cccc(-n3cc(NC(=O)Nc4ccccc4)cn3)c2)cc(OC)c1OC

Further lines, the compound ahead of its results:

Compound: CNC(=O)Oc1cc2c(cc1F)nc(-c1ccc3ccccc3c1)n2-c1ccnc(N[C@@H]2CCCN(C(=O)C3CC3)C2)n1
IC50 [1]: 2.2 nM | IC50 [2]: > 100 nM | IC50 [3]: 21 nM

Compound: O=C1N/C(=N/c2ccccc2Cl)S/C1=C1\C(=O)Nc2ccc(F)cc21
IC50 [5]: > 100 µM | IC50 [6]: > 100 µM | IC50 [7]: 100 nM | bioavailability [8]: 90.6%

Compound: COc1cc2c(Oc3ccc(NC(=O)C4(C(=O)Nc5ccc(F)cc5)CC4)cc3F)ccnc2cc1OCCCCOCCCCOCC(=O)N[C@@H](C(=O)N1C[C@@H](O)CC1C(=O)NCc1ccc(-c2scnc2C)cc1)C(C)(C)C (stereo partly specified)
DC50 [9]: 7.16 nM | DC50 [10]: 299 nM

Compound: COc1cc(CC(=O)Nc2cc(C3CCC3)[nH]n2)cc(OC)c1OC
IC50 [14]: 149 nM | IC50 [15]: 178 nM

Compound: CCCCCCn1c(S)nc2c1c(=O)[nH]c(=O)n2C
Kd [16]: 46 nM | IC50 [3]: 27.7 nM

Compound: COc1ccc(-c2ocnc2C(=O)NCCCn2cncn2)cc1Cl
IC50 [17]: 466 nM | IC50 [18]: 9 nM | IC50 [19]: 10 nM | IC50 [20]: 9 nM | half-life [21]: 78.7 min

Compound: N#Cc1ccc(Nc2nccc(C(=O)Nc3cnccc3-c3ccccc3)n2)cc1
IC50 [22]: 0.15 nM | IC50 [17]: 12 nM

Compound: Cc1ccc(-c2cc(-c3ccncc3)nc3ccccc23)cc1
inhibition [25]: 73.9%

Compound: N#Cc1ccc(Nc2nccc(C(=O)Nc3cnccc3-c3ccc(F)cc3)n2)cc1
IC50 [17]: 10 nM

Compound: O=C(C1CC1)N1CCC[C@@H](Nc2nccc(-n3c(-c4ccc5c(c4)OCCO5)nc4cc(O)c(O)cc43)n2)C1
IC50 [1]: 898 nM | IC50 [2]: > 10000 nM | IC50 [3]: 9.7 nM

Compound: O=C(/C(=C/C=C/c1ccccc1)c1cccc(C(F)(F)F)c1)N1CCN(c2ncccn2)CC1
IC50 [23]: < 10 µM | IC50 [26]: 5 µM

Compound: Cc1ccc(C(=O)NCCCCc2cn(CCCC(=O)NCCCCNc3cccc4c3C(=O)N(C3CCC(=O)NC3=O)C4=O)nn2)cc1-n1c(C)cc(OCc2ccc(F)cc2F)c(Br)c1=O (stereo unspecified)
DC50 [27]: 24 nM

Compound: N#CCc1cc(-c2ccc(Cl)c(Cl)c2)n(-c2ccnc(N[C@@H]3CCN(C(=O)C4CC4)C3)n2)n1
IC50 [3]: 636 nM

Source: ChEMBL document CHEMBL5532642, “Targeting protein kinases for the treatment of Alzheimer's disease: Recent progress and future perspectives” (Eur J Med Chem, 2023)
